“Also recorded” adds a separate entry of the source.
How the values were obtained:
Format in all cases: cell-based, human
[1] = tested on: Toll-like receptor (TLR) RNA's (TLR1-10); experiment: qPCR of TLR transcription in PBMC's from AD patients cultured with Aβ and test agent; settings: for up-regulation of TLR1-10 RNA: PBMCs from one AD patient (patient D, FIG. 1), Aβ plus agent overnight
Description: 10 million PBMC's each of four AD patients (A, B, C, D) were treated overnight with no addition, Aβ (A, B, C, D; black bars) or with Aβ and bisdemethoxycurcumin (D, striped bar). Control subjects's (M, N, O) PBMC's were treated with no addition or Aβ (open bars). RNA was extracted and tested by qPCR, and the TLR ratio was determined as described in the Methods. The significance of differences between patients and controls (by Mann-Whitney test) are: TLR1 0.05; TLR2 0.05; TLR3 0.05; TLR4 0.08; TLR5 0.05; TLR6 0.077; TLR7 0.08; TLR8 0.05; TLR9 0.08; TLR10 0.05. The graphs show changes in receptors on 2-fold (log 2) scale.
(§1) RNA Isolation and qPCR. RNA was isolated as above from PBMC's (10 million) of each subject, which were cultured overnight with or without Aβ (2 μg/ml); and cDNA was synthesized using the iSCRIPT cDNA Synthesis Kit. The expression levels of the genes of interest were tested by qPCR on a real-time PCR detector and normalized to the levels of the housekeeping gene 36B4 with the following primers: […]
SYBR Green reactions were carried out with the IQ SYBR Green mix. Reactions were run on a Continuous Fluorescence detector and analyzed. The relative quantities of the gene tested per sample were calculated against 36B4 using the ΔΔC(T) formula as previously described. The results are expressed as log [MGAT (or TLR) RNA (with Aβ)/MGAT (or TLR) RNA (without Aβ)] for each specimen. For evaluation of curcumins or curcumin analogs the above assay was used. […] The expression levels of Mgat3 or TLR transcription was quantified and normalized to the levels of housekeeping genes and compared to cells treated with curcumin or analogs with or without Aβ vs. untreated cells. The amount of Mgat3 (or TLR) RNA with Aβ and test agent/Mgat3 (or TLR) RNA withal alone)] for each cell preparation in the presence of test agent was determined. […]
Curcumins. […] The expression levels of Mgat3 or TLR transcription was quantified and normalized to the levels of housekeeping genes and compared to cells treated with curcumin or analogs without Aβ. […]

[2] = tested on: TLR2, TLR3 and TLR4 on monocytes; experiment: Flow cytometry of TLR expression on monocytes of PBMCs from an AD patient
Mgat3 transcription = experiment: qPCR of Mgat3 transcription in PBMC's from AD patients cultured with Aβ and test agent
Description: as §1
SYBR Green reactions were carried out with the IQ SYBR Green mix. Reactions were run on a Continuous Fluorescence detector and analyzed. The relative quantities of the gene tested per sample were calculated against 36B4 using the ΔΔC(T) formula as previously described. The results are expressed as log [MGAT (or TLR) RNA (with Aβ)/MGAT (or TLR) RNA (without Aβ)] for each specimen. For evaluation of curcumins or curcumin analogs the above assay was used. Curcumins (0.1 uM) were added to PBMC's from AD patients cultured overnight with ±Aβ as above. After 2 hours of incubation with the curcumin or analog, RNA was isolated and cDNA was synthesized as above. The expression levels of Mgat3 or TLR transcription was quantified and normalized to the levels of housekeeping genes and compared to cells treated with curcumin or analogs with or without Aβ vs. untreated cells. The amount of Mgat3 (or TLR) RNA with Aβ and test agent/Mgat3 (or TLR) RNA withal alone)] for each cell preparation in the presence of test agent was determined. The ratio was used to determine the potency of the agent tested. Potent compounds had elevated ratios (>1.5) and were used to rank the relative activity of each test agent (Table 2).
Curcumins. […] Crude natural product derived materials (i.e., curcuminoids) enhance phagocytosis of Aβ by macrophages from AD patients in approximately 50% of the cases examined. […] The material was purified to near homogeneity and identified by LCMS as bisdesmethoxycurcumin on the basis of its molecular ion and fragmentation pattern. To verify the biological activity of this minor constituent, bisdesmethoxycurcumin was chemically synthesized and tested in the phagocytosis and transcription assays described above (see Example 4). Compared with curcumin, both the bisdesmethoxycurcumin material isolated by chromatography and the chemically synthesized bisdesmethoxycurcumin material optimally stimulated phagocytosis at 0.1 μM. To determine whether functional improvement would be accompanied by biochemical changes, we tested transcriptional up-regulation of MGA T3 and TLR's in PBMC's from AD patients and controls in the presence of Aβ with bisdesmethoxycurcumin (0.1 μM) in comparison to Aβ alone. […] Thus, curcumins (0.1 uM) were added to PBMC's from AD patients cultured overnight with Aβ as above. After 2 hours of incubation, RNA was isolated and cDNA was synthesized. The expression levels of Mgat3 or TLR transcription was quantified and normalized to the levels of housekeeping genes and compared to cells treated with curcumin or analogs without Aβ. The amount of Mgat3 (or TLR) RNA with test agent and Aβ)/Mgat3 (or TLR) RNA (with Aβ alone)] for each cell preparation in the presence of test agent was determined. The ratio was used to determine the potency of the agent tested. Potent compounds had elevated ratios (>1.5) and were used to rank the relative activity (Table 2).
Mgat3 and TLR transcription in cells from AD and control patients. We tested by qPCR Mgat3 and/0or TLR transcription in cells from AD patients and compared the results to those obtained from age-matched controls (Table 2). As discussed above, activation or up-regulation of macrophage Mgat3 or TLR's results in many functional outcomes, including the enhancement of […] and removal of Aβ, increased apoptosis, secretion of inflammatory cytokines, and other anti-AD antimicrobial activities. […] Thus, the ratio of Mgat3 or TLR transcription upon Aβ stimulation of AD versus control PBMCs provides an indicator and sensitive method to test the in vitro efficacy of drug candidates. […]

[3] = tested on: macrophages of AD patients; experiment: Phagocytosis of FITC-amyloid-beta (1-42) by macrophages of AD patients
Source text: Peripheral blood mononuclear cells (PBMC's) and macrophages. AD patients were recruited at the time of enrollment in a double-blind study of curcumin Complex 3 in progress at UCLA. The diagnostic criteria for AD satisfied the National Institute of Neurological and Communicative Disorders and the AD and Related Disorders Association criteria for probable Alzheimer's disease. Normal age-matched control subjects were recruited. PBMC's were isolated by the Ficoll Hypaque gradient technique from venous blood. To prepare macrophage slide cultures, 50,000 PBMC's were cultured in each well of an 8-chamber polystyrene vessel glass slide in Iscove's medium with 10% autologous serum until differentiated into adherent macrophages (7-14 days).
Phagocytosis assay and confocal microscopy. Macrophages were exposed to FITC-amyloid-beta (1-42) (2 μg/ml) overnight, fixed with 4% paraformaldehyde, permeabilized with 0.1% Triton X-100, blocked with 1% BSA in PBS and stained with Rab 5 or EEA1 antibodies by indirect immunofluorescence; lysosomes were stained intravitally by the Lyso-Tracker probe; macrophages were stained using anti-CD68; neurons were stained using anti-NeuN. The preparations were examined using fluorescence and confocal microscopy.
Ability of monocytes to clear Aβ in the brain. Co-culture of freshly isolated monocytes with sections of AD frontal lobe to test the ability of monocytes to clear Aβ in the brain was done. One third of control monocytes became saturated with Aβ in 2 days and 100% in 4 days. […] Apoptosis of macrophages treated with Aβ was done with the SR-VAD-FMK polycaspase assay. Differentiated macrophages were treated with curcuminoids or analogs in the medium overnight and were then exposed to FITC-Aβ (1-42) to 2.5 μg/ml, incubated for 24 or 48 h and examined by fluorescence or confocal microscopy.
Curcuminoids reverse defective phagocytosis of amyloid-beta by macrophages of individual AD patients. […] Macrophages were visualized using anti-CD68 or fluorescent phalloidin with a fluorescence microscope.

[4] = 0.1 μM, PBMC's from AD patients

SMILES: O=C(C=Cc1ccc(O)cc1)C=C(O)C=Cc1ccc(O)cc1 [Compound 5a, 5-Hydroxy-1,7-bis-(4-hydroxy-phenyl)-hepta-1,4,6-trien-3-one]
- transcription of TLRs with Aβ and agent in comparison to Aβ alone [1, 4]: up-regulated in all four patients examined
- up-regulation of TLR1-10 RNA ([1]; listed as Bisdemethoxycurcumin): all 10 TLRs were up-regulated
- up-regulation of TLR1-10 RNA ([1]; listed as bisdemethoxycurcumin): up-regulation
- expression of TLR2, TLR3 and TLR4 on monocytes [2]: increased expression
- transcription of MGAT3 with Aβ and agent in comparison to Aβ alone (Mgat3 transcription; [4]): up-regulated in all four patients examined
- fold induction at 0.1 µM (Mgat3 transcription; Homo sapiens, curcumins 0.1 uM, PBMC's from AD patients cultured overnight with Aβ, 2 hours incubation, qPCR, read-out: Relative Activity: relative ratio of Mgat3 transcription in AD/Mgat3 transcription in control cells): 1.5 to 2
- relative Mgat3 ratios (Mgat3 transcription; repeat assays): 3-5 fold
- effect on Aβ phagocytosis/uptake by AD macrophages ([3]; in vitro treatment during Aβ phagocytosis, fluorescence/confocal microscopy, listed as bisdemethoxycurcumin): enhanced the phagocytosis of Aβ by macrophages of AD patients; also recorded: considerable activity
- concentration that optimally stimulated phagocytosis ([3]; isolated and chemically synthesized material, compared with curcumin): 0.1 µM

From US20090263492A1, “Diagnostic Methods and Genetic Markers for Alzheimer Disease” (priority 2006, published 2009)
